From patent US8513258B2, “Cinnamoyl-piperazine derivatives and their use as par-1 antagonists” (Pierre Fabre Medicament, priority 2006, dated 2013) come the findings set out here.

One test addresses T1, PAR-1 receptor (Cricetulus griseus, UniProt A0A8C2QJ57).
T1 construct: Chinese hamster ovarian (CHO) cells constituently express PAR-1 receptor; endogenous in cells; host or cells: CHO cells
T1 sequence (A0A8C2QJ57 22-428): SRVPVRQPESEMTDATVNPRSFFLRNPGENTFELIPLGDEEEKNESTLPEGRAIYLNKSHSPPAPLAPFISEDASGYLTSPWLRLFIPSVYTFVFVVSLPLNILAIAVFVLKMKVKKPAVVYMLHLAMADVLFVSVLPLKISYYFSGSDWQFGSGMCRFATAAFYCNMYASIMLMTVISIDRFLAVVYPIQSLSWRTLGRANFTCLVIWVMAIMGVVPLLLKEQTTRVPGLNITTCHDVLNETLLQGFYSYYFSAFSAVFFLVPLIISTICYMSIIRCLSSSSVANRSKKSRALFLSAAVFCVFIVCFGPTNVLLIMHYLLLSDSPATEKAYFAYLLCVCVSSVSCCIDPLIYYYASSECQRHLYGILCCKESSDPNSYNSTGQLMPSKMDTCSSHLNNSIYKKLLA
Briefly: Antagonism of SFLLR-induced calcium release in CHO cells (FLIPR, Fluo-3AM). Particulars: agonist SFLLR-NH2, Arunlakshana and Schild method from EC50 shifts at three antagonist concentrations. In kind it is cell-based, Chinese hamster. How it is done:
In a variety of cell types, activation of PAR-1 receptors by the SFLLR peptide (a selective PAR-1 agonist) triggers an intracellular signal cascade leading to the release of calcium by the endoplasmic reticulum. Chinese hamster ovarian (CHO) cells constituently express PAR-1 receptor. In this cell line, the release of calcium consecutive to receptor activation by SFLLR is measured by a fluorometry technique (fluorometric imaging plate reader, or FLIPR) using a selective probe for calcium (Fluo-3AM). The emission of fluorescence is pharmacologically proportional to the efficiency of the PAR-1 agonist and to its concentration.
Culture medium: Ham's F-12 (Ham, R. G., Proc. Nat. Acad. Sci. 1965, 53: 288) supplemented with 10% fetal calf serum and […].
Fluorescent probe: Fluo-3AM (4 μM; Teflabs, Austin, Tex., USA)
Agonist: SFLLR-NH2 (Serine, phenylalanine, leucine, leucine, arginine).
Methods: CHO cells are inoculated in 96-well plates (60,000 cells per well) in the presence of 200 μl of culture medium for 24 hours. The cells are incubated with the calcium fluorescent probe for 1 hour at 37° C. The cells are then washed 10 minutes before the signal is measured. PAR-1 antagonist is then injected (0.01 μM to 10 μM). The plates are placed in the FLIPR (Molecular Devices, UK) to measure calcium fluorescence at two wavelengths (488 nm and 540 nm: Sullivan et al., Calcium Signaling Protocols 1999, 125-136). Measurements are taken for 5 min before the antagonist is added and for 10 min following its administration. Maximum fluorescence minus baseline fluorescence is measured in 4 different wells. The test is carried out in duplicate. Under these conditions, the derivatives of the present invention were identified as PAR-1 receptor antagonists (antagonism>60% of the calcium signal at 10 μM). The dose-response curves (0.01 μM to 32 μM) obtained with the SFLLR agonist allowed determination of the effective concentration inducing 50% of the maximum effect (EC50). The strengths (pA2) of some of the PAR-1 antagonists described in the present invention were calculated using the method of Arunlakshana and Schild (Brit. J. Pharmacol., 1959, 14: 48-58) from the EC50 shifts observed at three concentrations.
Consider `O=C(C=Cc1ccccc1F)N1CCN(Cc2ccc(F)cc2)CC1` [Example 2, 1-[4-(4-Fluoro-benzyl)-piperazin-1-yl]-3-(2-fluoro-phenyl)-propenone], for which the pA2 was 6.50.

Consider `O=C(C=Cc1ccccc1Br)N1CCN(Cc2ccc(F)cc2)CC1` [Example 3, 3-(2-Bromo-phenyl)-1-[4-(4-fluoro-benzyl)-piperazin-1-yl]-propenone], for which the pA2 was 6.36. Consider `Cc1ccc(CN2CCN(C(=O)C=Cc3ccccc3Cl)CC2)cc1` [Example 4, 3-(2-Chloro-phenyl)-1-[4-(4-methyl-benzyl)-piperazin-1-yl]-propenone], for which the pA2 worked out at 6.05.

Consider `O=C(C=Cc1c(F)cccc1F)N1CCN(Cc2ccc(F)c(F)c2)CC1` [Example 8, 1-[4-(3,4-Difluoro-benzyl)-piperazin-1-yl]-3-(2,6-difluoro-phenyl)-propenone], for which the pA2 worked out at 6.32. On the same count and under the same terms, the value for `Cc1cccc(CN2CCN(C(=O)C=Cc3c(F)cccc3F)CC2)c1` [Example 10, 3-(2,6-Difluoro-phenyl)-1-[4-(3-methyl-benzyl)-piperazin-1-yl]-propenone] was 6.46. In the case of `O=C(C=Cc1ccccc1Cl)N1CCN(Cc2ccccc2F)CC1` [Example 15, 3-(2-Chloro-phenyl)-1-[4-(2-fluoro-benzyl)-piperazin-1-yl]-propenone], the pA2 amounted to 6.39.

Consider `O=C(C=Cc1ccccc1[N+](=O)[O-])N1CCN(Cc2ccc(F)cc2)CC1` [Example 29, 1-[4-(4-Fluoro-benzyl)-piperazin-1-yl]-3-(2-nitro-phenyl)-propenone], for which the pA2 was determined as 6.98.

The same test, now with this note: agonist SFLLR-NH2, Arunlakshana and Schild method from EC50 shifts at three antagonist concentrations, read-out: pA2 (converted).
Take `O=C(/C=C/c1ccccc1Cl)N1CCN(Cc2ccc(F)cc2)CC1` [Example 1, 3-(2-Chloro-phenyl)-1-[4-(4-fluoro-benzyl)-piperazin-1-yl]-propenone]: the Kb was 0.38 µM. Turning to `O=C(/C=C/c1ccccc1[N+](=O)[O-])N1CCN(CC2CCCCC2)CC1` [Example 25, 1-(4-Cyclohexylmethyl-piperazin-1-yl)-3-(2-nitro-phenyl)-propenone], the Kb was 0.166 µM. As for `O=C(/C=C/c1ccccc1Cl)N1CCN(CC2CCCCC2)CC1` [Example 28, 3-(2-Chloro-phenyl)-1-(4-cyclohexylmethyl-piperazin-1-yl)-], the Kb is 0.759 µM.
